Series [1] relates to Dld1 colon carcinoma cells. As to the kind of experiment: Antiproliferative activity against Dld1 colon carcinoma cells (nuclei count). The format is cell-based, human. The following applies: Homo sapiens, DLD-1; colon carcinoma cells, 5 nM-90 microM, nuclei count; read-out: Dld1 IC50. The procedure:
(§1) For examination of cell line-specific cytotoxicity, compounds were applied to human colorectal cancer cells (HCT116, denoted (1); SW480, denoted (2); Dld-1, denoted (3)) and human fibroblasts (HS-68, denoted (4)), cultured in Mc Coy's ((1)) and Dulbecco's Modified Eagles Medium ((2)-(4)), supplemented with 10% ((1)-(3)) and 20% ((4)) fetal calf serum and 1% penicillin/streptomycin. Cells were grown in T75 flasks at 37° C., 5% CO2 and trypsinized when 60-80% confluent by adding 2 ml of 0.25% Trypsin-EDTA (ethylenediaminetetraacetic acid) solution. Cells were then re-suspended into culture medium yielding approx. 750 cells, suspended in 45 microl medium, were plated into each well of a black 384-well plate for fluorescence imaging experiments. 24-36 hr later 5 microl compound solution (100 microM compound dissolved in ultra pure water containing 1% DMSO (dimethylsulfoxide)), were added to achieve a final concentration of 10 microM and were incubated for at least 72 hr. Compound incubation was terminated by (a) fixation and (b) permeabilisation of cells, followed by (c) fluorescence labeling of cell nuclei for cytometric quantification or by immunocytochemistry for microscopic evaluation of cell morphology. […] Solutions were incubated for 15 (a,b) and 30 min (c) in the dark at room temperature. Cells were washed twice between each step with 30 microl PBS. The assay system was miniaturized and adapted to automated workflow using liquid-handling robotics.
(§2) Cell line-specific cytotoxicity was quantified by counting the number of Hoechst labeled nuclei per well of a 384-well plate using a plate cytometer. Data obtained with the cytometer was analysed using standard data analysis software.
(§3) The examination of the antiproliferative activity against human colon carcinoma cells Dld1, HCT116 and SW480 was carried out in analogy to the procedure carried out for HS68. The respective compound applied in increasing concentrations yielding final concentrations per well of 5 nM-90 microM.

The test system of series [2] is SW480 colon carcinoma cells. As to the kind of experiment: Antiproliferative activity against SW480 colon carcinoma cells (nuclei count). The format is cell-based. The note with it: Homo sapiens, 5 nM-90 microM. The procedure: as §1, §2, §3
Series [3] deals with human fibroblasts (HS-68). Nature of the series: Cell line specific cytotoxicity, normal cells HS68 (nuclei count). The format is cell-based. The following applies: at least 72 hr incubation, Hoechst nuclei count, read-out: HS68 IC50 (influence on normal cells). The procedure:
as §1, §2
Identified hits were further evaluated by visual inspection of fluorescence micrographs obtained from imaging using a conventional fluorescence microscope.

Series [4] concerns HCT116 colon carcinoma cells. As to the kind of experiment: Antiproliferative activity against HCT116 colon carcinoma cells (nuclei count). The format is cell-based, human. The note with it: Homo sapiens, HCT-116; colon carcinoma cells, 5 nM-90 microM, nuclei count; read-out: HCT116 IC50. The procedure:
as §1, §2, §3

For another series, the system named is Wnt pathway (Wnt1/Frzd8). Nature of the series: Wnt signaling pathway reporter gene assay (6xTCF-luciferase, Wnt1/Frizzled 8/LRP6 stimulated Hek293T cells). The format is cell-based, mouse (Wnt1, human (LRP6). The following applies: Homo sapiens, HEK-293T, Hek293T, 6xTCF-luciferase reporter, 24 h incubation, 5 nM-100 microM, read-out: Wnt1/Frzd8 IC50 (Wnt pathway inhibitory activity). The text has this: To screen for small-molecule modulators of the Wnt signaling pathway, a reporter gene based assay describing the modulation of the TCF4 transcription factor was used. […]
A general note: Reporter assays use an easily measured gene product as a stand-in for the process of interest.

Series [5] can be described thus: Cytotoxicity in HepG2 (CellTiterGlo). The format is cell-based. The note with it: human, HepG2 cells, 24 h after compound addition, 5 nM-100 microM, read-out: HepG2 IC50 (cytotoxic activity). Here is the method:
(§4) For examination of cytotoxicity in these cancer cell lines the commercial available CellTiterGlo® Reagent (Promega, USA) was used according to the manufactor. Compounds were applied to Hek293T (denoted (a)) or HepG2 (denoted (b)), cultured in Dulbecco's Modified Eagles Medium, supplemented with 10% fetal calf serum and 1% penicillin/streptomycin. Cells were grown in T75 flasks at 37° C., 5% CO2 and trypsinized when 60-80% confluent by adding 2 ml of 0.25% Trypsin-EDTA solution. Cells were then re-suspended into culture medium yielding approx. 4000 cells (a) or 4500 cells (b), suspended in 30 microl medium. 48 h after cell seeding, compounds were added to yield the desired final concentrations. 24 h after compound addition cytotoxicity was evaluated. For this purpose the media was removed and CellTiterGlo® was added according to the manufactors manual. In this assay the luciferase emission readout is directly correlated with the cellular amount of ATP, low luciferase emission thus is reflecting cytotoxicity of a compound.
(In ATP-based viability assays light output follows the ATP content of the culture.)

Series [6] in a line: Cytotoxicity in Hek293T (CellTiterGlo). The format is cell-based. The following applies: human, Hek293T cells, 24 h after compound addition, 5 nM-100 microM, read-out: Hek293T IC50 (cytotoxic activity). The procedure:
as §4

Five compounds from patent publication US20130296344A1, “CHROMENE DERIVATIVES AND THEIR ANALOGA AS WNT PATHWAY ANTAGONISTS” (Ruprecht-Karls-Universitat Heidelberg, priority 2010, published 2013) can be followed below.

Where two headings read alike, the source gives them in different places.

As to `N#CC1=C(N)Oc2c(ccc3ccccc23)C1c1cc(F)c(F)c(F)c1` (centres unmarked) [(7), 2-Amino-4-(3,4,5-trifluoro-phenyl)-4H-benzo[h]chromene-3-carbonitrile], the IC50 in series [1] is 474 nM; in series [2], 2.86 µM; in series [3] it was above 90000 nM; in series [4], 922 nM; in the series on Wnt pathway (Wnt1/Frzd8), 316 nM. The IC50 at 24 h in series [5] and in series [6] was above 90 µM in each case.

`C=CCOc1c(Br)cc(C2C(C#N)=C(N)Oc3cc4c(cc32)OCO4)cc1OC` (centres unmarked) [(41), 8-(4-Allyloxy-3-bromo-5-methoxy-phenyl)-6-amino-8H-[1,3]dioxolo[4,5-g]chromene-7-carbonitrile]: the IC50 in series [1] came to 470 nM; in series [2], 0.618 µM; in series [3], 641 nM; in series [4], 551 nM; with Wnt pathway (Wnt1/Frzd8) it was 45 nM. Besides, the IC50 at 24 h in series [5] and in series [6] was above 90 µM each time.

In the case of `COc1cc(C2C(C#N)=C(N)Oc3c2ccc2ncccc32)cc(Br)c1OC` (centres unmarked) [(18), 6-Amino-8-(3-bromo-4,5-dimethoxy-phenyl)-8H-5-oxa-1-aza-phenanthrene-7-carbonitrile], the IC50 in series [1] worked out at 185 nM; in series [2] it was 19.7 µM; in series [3], 2770 nM; in series [4] it was 331 nM; in the series with Wnt pathway (Wnt1/Frzd8) it was 33 nM. For the same compound, the IC50 at 24 h in series [5] and in series [6] was above 90 µM each time.

Take `CCOC(=O)C1=C(N)Oc2cc3c(cc2C1c1cc(F)c(F)c(F)c1)OCO3` (centres unmarked) [(40), 6-Amino-8-(3,4,5-trifluoro-phenyl)-8H-[1,3]dioxolo[4,5-g]chromene-7-carboxylic acid ethyl ester]: the IC50 is 15700 nM in series [1]; 6.38 µM in series [2]; above 90000 nM in series [3]; above 90000 nM in series [4]; 3420 nM in the series on Wnt pathway (Wnt1/Frzd8) (24 h). The IC50 at 24 h in series [5] and in series [6] was above 90 µM each time.

As to `CCOC(=O)C1=C(N)Oc2c(ccc3ccccc23)C1c1cc(Br)c(OC)c(OC)c1` (centres unmarked) [(6), 2-Amino-4-(3-bromo-4,5-dimethoxy-phenyl)-4H-benzo[h]chromene-3-carboxylic acid ethyl ester], the IC50 is 3820 nM in series [1]; 5.96 µM in series [2]; above 90000 nM in series [3]; 8600 nM in series [4]; 855 nM in the series with Wnt pathway (Wnt1/Frzd8) (24 h). Also, the IC50 at 24 h in series [5] and in series [6] was above 90 µM throughout.
